The subject of experiment [1] is Winnie mice. The experiment can be described thus: Immunohistochemistry and histology of distal colon (cross sections and LMMP). It counts as in vivo, mouse. On the procedure:
The small molecular APE1/Ref-1 antagonist; APX3330, was administered via IP injections in Winnie mice at a dose of 25 mg/kg (30 G needle, max volume 200 μl) dissolved in Cremphore (2%) (Sigma-Aldrich): Ethanol (2%) in sterile water (96%). Mice received alternating IP injections twice a day with 12-hour intervals, over the course of two weeks during predominate intestinal inflammation. Winnie-sham treated mice received vehicle injections excluding APX3330 drugs. All mice were monitored, weighed and faecal pellets were collected over the course of treatment.
Distal colon tissues were harvested in oxygenated physiological saline, flushed of faecal content and cut along the mesenteric border. Tissues were pinned down with mucosal side upwards in a Slygard-lined petri dish and were briefly fixed with Zamboni's fixative (2% formaldehyde containing 0.2% picric acid) over night at 4° C. Zamboni's fixative was removed by a serial of washes (3×10 minutes) with dimethyl sulfoxide (DMSO) (Sigma-Aldrich, Sydney, Australia) followed by (3×10 minutes) with 1× phosphate buffered solution (PBS). Tissues were processed for cross sections wholemount longitudinal muscle-myenteric preparations (LMMP). For histological staining, β-tubulin III and α-Smooth muscle actin (SMA) labelling distal colon tissues were pinned and fixed as above without stretching and stored in 50:50 optimum cutting temperature (OCT) compound (Tissue Tek, CA, USA) and frozen in liquid nitrogen-cooled isopentane and OCT and stored at −80° C. until cryo-sectioned (20 μm) onto glass slides for immunohistochemistry (IHC). For immunolabeling glial fibrillary acidic protein (GFAP), microtubule associated protein-2 (MAP2), HMGB1 and APE1, the distal colon LMMPs were stretched to maximum capacity without tearing in Slygard-lined petri dishes and were subjected to fixation and washes as above. To expose the myenteric plexus, removal of mucosa, submucosa and circular muscle was performed prior to IHC.
Immunohistochemistry (IHC) was completed. Specimens were subjected to a one hour incubation at room temperature with 10% normalised donkey serum (NDS) (Merck Millipore, Australia) prior to labelling with primary antibodies (Table 2) in distal colon cross sections and LMMPs. Sections and preparation were washed with 1×PBS (3×10 minutes) and then briefly incubated with fluorophore-conjugated secondary antibodies (Table 2). All specimens were stained with 4′,6′-diamindino-2-pheylindole dihydrochloride (DAPI) to identify immunoreactive cells. Tissues were mounted on glass slides with fluorescent mounting medium (DAKO, North, Sydney, NSW, Australia Tissues for histology were cryo-sectioned at 10 μm, cleared and rehydrated in graded ethanol concentration. For standard hematoxylin and eosin stain (H&E) and Alcian blue stain, sections were immersed in histolene (3×4 minutes), 100% ethanol (2 minutes), 95% ethanol (2 minutes), 70% ethanol (2 minutes), rinsed in tap water (30 seconds), then in hematoxylin (Sigma-Aldrich) (1 minute) or Alcian blue (Sigma-Aldrich) (30 minutes), rinsed in tap water, immersed in Scott's tap water (1 minute) and eosin (Sigma-Aldrich) (5 minutes), rinsed in tap water, immersed in 100% ethanol (2×1 minute) and histolene (4 minutes) and finally mounted on glass slides with DPX mountant. A histological grading system evaluated gross morphological damage on constraints inclusive of mucosal flattening (0=normal, 3=severe flattening), manifestations of haemorrhagic sites (0=none, 3=frequent), damage or distortion to circular muscle (0=normal, 3=substantial thickening and disorganization of muscle layer) and loss to goblet cells (0=none, 3=depleted cells). All slides were coded, and analysis was performed blindly.
Confocal microscopy (Nikon Eclipse Ti multichannel confocal laser scanning system, Nikon, Japan) acquired immunolabelled sections. […]

Experiment [2] relates to Winnie mice. The experiment can be described thus: Superoxide production in the myenteric plexus (MitoSOX Red). It counts as in vivo, mouse. The conditions noted are these: distal colon myenteric plexus; mean±SEM, n=4. How it is done: The small molecular APE1/Ref-1 antagonist; APX3330, was administered via IP injections in Winnie mice at a dose of 25 mg/kg (30 G needle, max volume 200 μl) dissolved in Cremphore (2%) (Sigma-Aldrich): Ethanol (2%) in sterile water (96%). Mice received alternating IP injections twice a day with 12-hour intervals, over the course of two weeks during predominate intestinal inflammation. Winnie-sham treated mice received vehicle injections excluding APX3330 drugs. All mice were monitored, weighed and faecal pellets were collected over the course of treatment. MITOSOX™ Red M36008 (Invitrogen, Australia), acquired mitochondrial-derived production of superoxide in the myenteric ganglia. Briefly, distal colon preparations from control C57BL/6, Winnie-sham treated and Winnie-APX3330 treated mice freshly excised to expose the myenteric plexus. Samples were incubated at 37° C. for 40 minutes with 5 μM MITOSOX™ Red M36008. Tissues were washed with oxygenated physiological saline and fixed with Zamboni's fixative for 1-hour followed by (3×10 minute) 1×PBS washes. Prepared tissues were mounted on glass slides with DAKO fluorescent a mounting medium for imaging Images were captured as previously described above. Images were converted into binary and changes in fluorescence were measured in arbitrary units (arb. Units) relative to ganglion area using ImageJ software (National Institute of Health).

The mark [3] stands for this setting: LMMP distal colon, mean±SEM, n=6.
The mark [4] stands for this setting: distal colon cross sections, mean±SEM, n=5.

The compound `CCCCCCCCCC(=CC1=C(C)C(=O)C(OC)=C(OC)C1=O)C(=O)O` [APX3330] had a goblet cell density in the experiment with Winnie mice [1] (Alcian blue, distal colon mucosa, mean±SEM, n=4) of 46.5±4.3%. The compound also returned a histological grading with Winnie mice [1] (H&E / Alcian blue colon cross sections, mean±SEM, n=5) of 4.8±0.7. The “APE1 intensity (immunoreactivity density) in the myenteric ganglia” value in the experiment with Winnie mice [1] (LMMP colon, mean±SEM, n=4) is recorded as 6.0±1.4%. Also, in the experiment on Winnie mice [1] (setting [3]), the “expression of Oxo-8dG-IR (oxidative DNA damage) in myenteric ganglia” value is given as 2.0±0.9% and the “number of myenteric neurons IR for Oxo-8dG” value was determined as 0.9±0.7. For the same compound, the “number of APE1-IR cells” value in the experiment with Winnie mice [1] (LMMP, compared to control C57BL/6 and Winnie-sham (P<0.01)) is listed as “significantly decreased”. Besides, the “gross morphology of the colon (H&E stain)” value with Winnie mice [1] (colon cross sections of treated Winnie mice) is on record as “attenuate damage to the colon”. Besides, the “size of α-SMA-immunoreactive smooth muscle cells to nuclear size” value in the experiment with Winnie mice [1] (distal colon cross sections, circular muscle, mean±SEM, n=5) is recorded as 75.7±6.4%. Moreover, in the experiment on Winnie mice [1] (setting [4]), the “number of α-SMA-IR smooth muscle cells within the circular muscle” value worked out at 45.2±3.1 and the “β-tubulin (III)-IR nerve fibre density” value came to 13.3±0.8. The “proportional number of MAP2-IR myenteric neurons” value with Winnie mice [1] (myenteric ganglia, LMMP distal colon, mean±SEM, n=7) is 31.9±2.2%. Besides, in the experiment with Winnie mice [1] (myenteric ganglia, LMMP, mean±SEM, n=4), the “number of cells with HMGB1 translocation into the cytosol” value is on record as 0.9±0.3. Moreover, the “GFAP-IR glial cell density relative to ganglion area” value with Winnie mice [1] (myenteric plexus, LMMP distal colon, mean±SEM, n=4) worked out at 64.2±8.8%. In addition, in the experiment with Winnie mice [2], the “MitoSOX fluorescence (superoxide production) relative to ganglion area” value is given as 19.2±7.5%.
